Data: patent publication US12077503B2, “Substituted cyclic amides and their use as herbicides” (FMC CORPORATION, priority 2015, dated 2024)

How the values were obtained:
Assay type in all cases: in vivo
[1] = system: velvetleaf (Abutilon theophrasti); test: Test G Post-Emergence Protocol; conditions: Abutilon theophrasti, post-emergence, 312 h, read-out: Velvetleaf damage rating; for pest or weed control at 15.625 g/ha: 15.625 g ai/ha, evaluated after 13 days (100=total damage to plant; 0=no damage to plant); for pest or weed control at 62.5 g/ha: 62.5 g ai/ha; for pest or weed control at 62.5 g/ha / pest or weed control at 250 g/ha: evaluated after 13 days, 100=total damage to plant, 0=no damage to plant; for pest or weed control at 250 g/ha: 250 g ai/ha
How it was run: (§1)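 Pot-grown seedlings, 8 days old, raised in a glasshouse at 24/16 °C day/night with 14 h light and 65% humidity, were sprayed post-emergence with test compound in acetone/water (50:50) plus 0.5% Tween 20 at 15.625, 62.5 or 250 g/ha. Damage was scored visually 13 days later on a 0–100 scale (100 = total damage).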

[2] = system: giant foxtail (Setaria faberi); test: Test G Post-Emergence Protocol; conditions: Setaria faberi, post-emergence, 312 h, read-out: Foxtail, Giant damage rating; for pest or weed control at 15.625 g/ha: 15.625 g ai/ha, evaluated after 13 days (100=total damage to plant; 0=no damage to plant); for pest or weed control at 62.5 g/ha: 62.5 g ai/ha; for pest or weed control at 62.5 g/ha / pest or weed control at 250 g/ha: evaluated after 13 days, 100=total damage to plant, 0=no damage to plant; for pest or weed control at 250 g/ha: 250 g ai/ha
How it was run: as §1

corn (Zea mays) [3] = test: Test G Post-Emergence Protocol; conditions: Zea mays, post-emergence, 312 h, read-out: Corn damage rating; for plant injury at 15.625 g/ha: 15.625 g ai/ha, evaluated after 13 days (100=total damage to plant; 0=no damage to plant); for plant injury at 62.5 g/ha: 62.5 g ai/ha; for plant injury at 62.5 g/ha / plant injury at 250 g/ha: evaluated after 13 days, 100=total damage to plant, 0=no damage to plant; for plant injury at 250 g/ha: 250 g ai/ha
How it was run: as §1

[4] = system: redroot pigweed (Amaranthus retroflexus); test: Test G Post-Emergence Protocol; conditions: Amaranthus retroflexus, post-emergence, 312 h, read-out: Pigweed, Redroot damage rating; for pest or weed control at 15.625 g/ha: 15.625 g ai/ha, evaluated after 13 days (100=total damage to plant; 0=no damage to plant); for pest or weed control at 62.5 g/ha: 62.5 g ai/ha; for pest or weed control at 62.5 g/ha / pest or weed control at 250 g/ha: evaluated after 13 days, 100=total damage to plant, 0=no damage to plant; for pest or weed control at 250 g/ha: 250 g ai/ha
How it was run: as §1

[5] = system: barnyardgrass (Echinochloa crus-galli); test: Test G Post-Emergence Protocol; conditions: Echinochloa crus-galli, post-emergence, 312 h, read-out: Barnyardgrass damage rating; for pest or weed control at 15.625 g/ha: 15.625 g ai/ha, evaluated after 13 days (100=total damage to plant; 0=no damage to plant); for pest or weed control at 62.5 g/ha: 62.5 g ai/ha; for pest or weed control at 62.5 g/ha / pest or weed control at 250 g/ha: evaluated after 13 days, 100=total damage to plant, 0=no damage to plant; for pest or weed control at 250 g/ha: 250 g ai/ha
How it was run: as §1

[6] = system: ivy-leaved morning glory (Ipomoea hederacea); test: Test G Post-Emergence Protocol; conditions: Ipomoea, post-emergence, 312 h, read-out: Morningglory, Ivy-leaved damage rating; for pest or weed control at 15.625 g/ha: 15.625 g ai/ha, evaluated after 13 days (100=total damage to plant; 0=no damage to plant); for pest or weed control at 62.5 g/ha: 62.5 g ai/ha; for pest or weed control at 62.5 g/ha / pest or weed control at 250 g/ha: evaluated after 13 days, 100=total damage to plant, 0=no damage to plant; for pest or weed control at 250 g/ha: 250 g ai/ha
How it was run: as §1

[7] = system: velvetleaf (Abutilon theophrasti); test: Test G Pre-Emergence Protocol; conditions: Abutilon theophrasti, pre-emergence, 312 h, evaluated after 13 days; for pest or weed control at 15.625 g/ha: 15.625 g ai/ha; for pest or weed control at 15.625 g/ha / pest or weed control at 250 g/ha: read-out: Velvetleaf damage rating (100=total damage to plant; 0=no damage to plant); for pest or weed control at 62.5 g/ha: 62.5 g ai/ha, 100=total damage to plant, 0=no damage to plant, read-out: Velvetleaf damage rating; for pest or weed control at 250 g/ha: 250 g ai/ha
How it was run: (§2)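 Pre-emergence spray, 15.625/62.5/250 g/ha, vehicle acetone:water 50:50 + 0.5% Tween 20, applied 1 d after sowing. Glasshouse 24/16° C, 14 h light, 65% RH, watered twice daily. Visual damage rating at 13 d, 0–100 scale.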

[8] = system: giant foxtail (Setaria faberi); test: Test G Pre-Emergence Protocol; conditions: Setaria faberi, pre-emergence, 312 h, evaluated after 13 days; for pest or weed control at 15.625 g/ha: 15.625 g ai/ha; for pest or weed control at 15.625 g/ha / pest or weed control at 250 g/ha: read-out: Foxtail, Giant damage rating (100=total damage to plant; 0=no damage to plant); for pest or weed control at 62.5 g/ha: 62.5 g ai/ha, 100=total damage to plant, 0=no damage to plant, read-out: Foxtail, Giant damage rating; for pest or weed control at 250 g/ha: 250 g ai/ha
How it was run: as §2

corn (Zea mays) [9] = test: Test G Pre-Emergence Protocol; conditions: Zea mays, pre-emergence, 312 h, evaluated after 13 days; for plant injury at 15.625 g/ha: 15.625 g ai/ha; for plant injury at 15.625 g/ha / plant injury at 250 g/ha: read-out: Corn damage rating (100=total damage to plant; 0=no damage to plant); for plant injury at 62.5 g/ha: 62.5 g ai/ha, 100=total damage to plant, 0=no damage to plant, read-out: Corn damage rating; for plant injury at 250 g/ha: 250 g ai/ha
How it was run: as §2

[10] = system: redroot pigweed (Amaranthus retroflexus); test: Test G Pre-Emergence Protocol; conditions: Amaranthus retroflexus, pre-emergence, 312 h, evaluated after 13 days; for pest or weed control at 15.625 g/ha: 15.625 g ai/ha; for pest or weed control at 15.625 g/ha / pest or weed control at 250 g/ha: read-out: Pigweed, Redroot damage rating (100=total damage to plant; 0=no damage to plant); for pest or weed control at 62.5 g/ha: 62.5 g ai/ha, 100=total damage to plant, 0=no damage to plant, read-out: Pigweed, Redroot damage rating; for pest or weed control at 250 g/ha: 250 g ai/ha
How it was run: as §2

[11] = system: barnyardgrass (Echinochloa crus-galli); test: Test G Pre-Emergence Protocol; conditions: Echinochloa crus-galli, pre-emergence, 312 h, evaluated after 13 days; for pest or weed control at 15.625 g/ha: 15.625 g ai/ha; for pest or weed control at 15.625 g/ha / pest or weed control at 250 g/ha: read-out: Barnyardgrass damage rating (100=total damage to plant; 0=no damage to plant); for pest or weed control at 62.5 g/ha: 62.5 g ai/ha, 100=total damage to plant, 0=no damage to plant, read-out: Barnyardgrass damage rating; for pest or weed control at 250 g/ha: 250 g ai/ha
How it was run: as §2

[12] = system: ivy-leaved morning glory (Ipomoea hederacea); test: Test G Pre-Emergence Protocol; conditions: Ipomoea, pre-emergence, 312 h, evaluated after 13 days; for pest or weed control at 15.625 g/ha: 15.625 g ai/ha; for pest or weed control at 15.625 g/ha / pest or weed control at 250 g/ha: read-out: Morningglory, Ivy-leaved damage rating (100=total damage to plant; 0=no damage to plant); for pest or weed control at 250 g/ha: 250 g ai/ha
How it was run: as §2

Structure (SMILES)	pest or weed control at 15.625 g/ha [1]	pest or weed control at 62.5 g/ha [1]	pest or weed control at 250 g/ha [1]	pest or weed control at 15.625 g/ha [2]	pest or weed control at 62.5 g/ha [2]	pest or weed control at 250 g/ha [2]	plant injury at 15.625 g/ha (corn (Zea mays) [3])	plant injury at 62.5 g/ha (corn (Zea mays) [3])	plant injury at 250 g/ha (corn (Zea mays) [3])	pest or weed control at 15.625 g/ha [4]	pest or weed control at 62.5 g/ha [4]	pest or weed control at 250 g/ha [4]	pest or weed control at 15.625 g/ha [5]	pest or weed control at 62.5 g/ha [5]	pest or weed control at 250 g/ha [5]	pest or weed control at 15.625 g/ha [6]	pest or weed control at 62.5 g/ha [6]	pest or weed control at 250 g/ha [6]	pest or weed control at 15.625 g/ha [7]	pest or weed control at 62.5 g/ha [7]	also measured
CN1C[C@H](c2cc(C(C)(C)C)ncn2)[C@@H](C(=O)Nc2cccc(F)c2F)C1=O (racemic) [Compound 1667]	0%	0%	0%	0%	0%	20%	0%	0%	0%	0%	0%	0%	0%	0%	10%	0%	0%	0%	0%	0%	pest or weed control at 250 g/ha [7]: 0%; pest or weed control at 15.625 g/ha [8]: 0%; pest or weed control at 62.5 g/ha [8]: 10%; pest or weed control at 250 g/ha [8]: 20%; plant injury at 15.625 g/ha (corn (Zea mays) [9]): 0%; plant injury at 62.5 g/ha (corn (Zea mays) [9]): 0%; plant injury at 250 g/ha (corn (Zea mays) [9]): 0%; pest or weed control at 15.625 g/ha [10]: 0%; pest or weed control at 62.5 g/ha [10]: 0%; pest or weed control at 250 g/ha [10]: 0%; pest or weed control at 15.625 g/ha [11]: 0%; pest or weed control at 62.5 g/ha [11]: 10%; pest or weed control at 250 g/ha [11]: 20%; pest or weed control at 15.625 g/ha [12]: 0%; pest or weed control at 250 g/ha [12]: 30%
CCOc1ccc([C@@H]2CN(C)C(=O)[C@H]2C(=O)Nc2cccc(F)c2C)cc1Cl (racemic) [Compound 1803]	0%	0%	0%	20%	70%	80%	0%	0%	0%	0%	0%	20%	0%	0%	70%	0%	10%	10%	10%	0%	pest or weed control at 250 g/ha [7]: 20%; pest or weed control at 15.625 g/ha [8]: 70%; pest or weed control at 62.5 g/ha [8]: 90%; pest or weed control at 250 g/ha [8]: 90%; plant injury at 15.625 g/ha (corn (Zea mays) [9]): 0%; plant injury at 62.5 g/ha (corn (Zea mays) [9]): 0%; plant injury at 250 g/ha (corn (Zea mays) [9]): 30%; pest or weed control at 15.625 g/ha [10]: 30%; pest or weed control at 62.5 g/ha [10]: 0%; pest or weed control at 250 g/ha [10]: 40%; pest or weed control at 15.625 g/ha [11]: 20%; pest or weed control at 62.5 g/ha [11]: 70%; pest or weed control at 250 g/ha [11]: 90%; pest or weed control at 15.625 g/ha [12]: 0%; pest or weed control at 62.5 g/ha ([12]; 62.5 g ai/ha, 100=total damage to plant, 0=no damage to plant, read-out: Morningglory, Ivy-leaved damage rating): 0%; pest or weed control at 250 g/ha [12]: 0%
